Measured values as given in patent US20240382629A1, “HETEROBIVALENT AND HOMOBIVALENT AGENTS TARGETING FIBROBLAST ACTIVATION PROTEIN ALPHA AND/OR PROSTATE-SPECIFIC MEMBRANE ANTIGEN” (The Johns Hopkins University, priority 2021, published 2024).
Like-named read-outs stand apart in the source and are kept apart here. Blank lines part the entries; values can stand above or below the compound they belong to.

What was measured:
[1] = PET imaging and biodistribution in SK-MEL-24 tumor-bearing mice; assay type: in vivo, mouse; conditions: mouse, intravenous, SK-MEL-24 in NSG mice, 20 μCi; for tissue uptake at 1 h: n=3
Method: (§1) Cell uptake assays, flow cytometry, and IHC were performed as described previously. Banerjee et al., 2019; Nimmagadda et al., 2018. PET imaging and biodistribution Sequential PET imaging and biodistribution studies were conducted to quantify and validate PET imaging data. Briefly, tumor-bearing mice were administrated approximately 7.4 MBq of radiotracer in 150 μL saline via tail-vein injection. They were randomized into the indicated groups of 3-4 mice before radiotracer injection.
(§2) In Experiment 2, SK-MEL-24 tumor-bearing mice (n=3-4) were investigated.
(§3) Dose: 20 μCi, n=3 at 1 h and n=4 at 2 and 4 h per group, Tumor model: SK-MEL-24 in NSG mice

[2] = test system: SK-MEL-24 tumor; experiment: as above; assay type: in vivo, mouse; conditions: SK-MEL-24 in NSG mice, 20 μCi, in %ID/g
Method: as §1, §2, §3

[3] = target: FAP (Homo sapiens (Human), UniProt Q12884); experiment: FAP inhibition assay (recombinant enzyme, Z-Gly-Pro-AMC substrate); assay type: biochemical
Chain of FAP (Q12884 whole entry): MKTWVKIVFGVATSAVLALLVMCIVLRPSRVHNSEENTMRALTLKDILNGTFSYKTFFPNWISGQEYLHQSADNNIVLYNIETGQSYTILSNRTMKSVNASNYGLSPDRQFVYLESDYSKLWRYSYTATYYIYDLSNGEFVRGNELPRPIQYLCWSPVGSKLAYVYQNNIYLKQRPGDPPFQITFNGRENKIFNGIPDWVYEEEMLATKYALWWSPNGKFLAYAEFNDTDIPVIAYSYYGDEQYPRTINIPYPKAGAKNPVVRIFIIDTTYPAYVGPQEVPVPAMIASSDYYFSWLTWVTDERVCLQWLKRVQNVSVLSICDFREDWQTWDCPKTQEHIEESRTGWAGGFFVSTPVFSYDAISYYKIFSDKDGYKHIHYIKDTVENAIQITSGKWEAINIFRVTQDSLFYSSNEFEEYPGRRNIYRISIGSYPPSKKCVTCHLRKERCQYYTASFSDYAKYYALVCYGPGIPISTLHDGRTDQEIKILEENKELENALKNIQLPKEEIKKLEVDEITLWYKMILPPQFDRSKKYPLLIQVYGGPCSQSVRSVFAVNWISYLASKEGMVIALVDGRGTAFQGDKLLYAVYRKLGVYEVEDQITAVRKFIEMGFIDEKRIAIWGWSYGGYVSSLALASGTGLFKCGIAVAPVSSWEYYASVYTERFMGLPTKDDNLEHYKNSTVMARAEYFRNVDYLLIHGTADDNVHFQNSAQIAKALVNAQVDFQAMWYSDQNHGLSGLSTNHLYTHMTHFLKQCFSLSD
Method: (§4) PSMA binding affinities of the compounds were determined using a competitive inhibition assay as previously reported. […] FAP, prolyl endopeptidase (PREP), and […] (DPPIV) inhibition assays: Recombinant enzymes (FAP, PREP, DPPIV) were purchased from R&D Systems (Minneapolis, MN). […] Z-Gly-Pro-AMC was used as a substrate for FAP and PREP. H-Gly-Pro-AMC was used as a substrate for DPPIV. The recombinant enzyme (0.4 μg/mL) was incubated with varying amounts of the test articles in the presence of the designated substrate (80 μM) for 10 min at room temperature. Fluorescence intensity was measured with 380 nm excitation and 460 nm emission using the Cytation 5 Cell Imaging Multi-Mode Reader (BioTek, Winooski, VT). IC50 and Ki values were obtained using a sigmoidal dose-response function.

[4] = target: PREP (Homo sapiens (Human), UniProt P48147); experiment: PREP inhibition assay (recombinant enzyme, Z-Gly-Pro-AMC substrate); assay type: biochemical; conditions: for IC50: Table 4
Chain of PREP (P48147 whole entry): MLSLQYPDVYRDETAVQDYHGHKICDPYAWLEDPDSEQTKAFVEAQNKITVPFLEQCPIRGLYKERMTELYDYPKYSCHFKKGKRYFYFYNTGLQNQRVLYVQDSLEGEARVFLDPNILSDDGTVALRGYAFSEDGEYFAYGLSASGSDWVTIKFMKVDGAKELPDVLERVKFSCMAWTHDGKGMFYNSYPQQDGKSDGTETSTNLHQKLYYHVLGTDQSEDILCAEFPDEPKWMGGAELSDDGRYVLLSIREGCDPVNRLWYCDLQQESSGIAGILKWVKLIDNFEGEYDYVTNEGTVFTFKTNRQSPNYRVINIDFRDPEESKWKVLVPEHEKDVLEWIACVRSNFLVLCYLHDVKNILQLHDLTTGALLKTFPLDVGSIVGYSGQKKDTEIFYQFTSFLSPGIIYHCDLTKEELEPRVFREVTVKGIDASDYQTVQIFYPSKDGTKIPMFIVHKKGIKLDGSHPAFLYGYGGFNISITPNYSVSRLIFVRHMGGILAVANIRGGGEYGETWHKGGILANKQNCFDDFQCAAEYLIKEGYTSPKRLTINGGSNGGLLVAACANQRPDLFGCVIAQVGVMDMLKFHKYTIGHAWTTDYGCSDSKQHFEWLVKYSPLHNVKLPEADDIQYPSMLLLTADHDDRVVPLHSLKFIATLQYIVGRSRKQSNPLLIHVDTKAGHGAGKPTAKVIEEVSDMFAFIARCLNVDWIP
Method: as §4

[5] = target: DPPIV (Homo sapiens (Human), UniProt P27487); experiment: DPPIV inhibition assay (recombinant enzyme, H-Gly-Pro-AMC substrate); assay type: biochemical; conditions: for IC50: Table 4, read-out: DPPIV IC50
Chain of DPPIV (P27487 whole entry): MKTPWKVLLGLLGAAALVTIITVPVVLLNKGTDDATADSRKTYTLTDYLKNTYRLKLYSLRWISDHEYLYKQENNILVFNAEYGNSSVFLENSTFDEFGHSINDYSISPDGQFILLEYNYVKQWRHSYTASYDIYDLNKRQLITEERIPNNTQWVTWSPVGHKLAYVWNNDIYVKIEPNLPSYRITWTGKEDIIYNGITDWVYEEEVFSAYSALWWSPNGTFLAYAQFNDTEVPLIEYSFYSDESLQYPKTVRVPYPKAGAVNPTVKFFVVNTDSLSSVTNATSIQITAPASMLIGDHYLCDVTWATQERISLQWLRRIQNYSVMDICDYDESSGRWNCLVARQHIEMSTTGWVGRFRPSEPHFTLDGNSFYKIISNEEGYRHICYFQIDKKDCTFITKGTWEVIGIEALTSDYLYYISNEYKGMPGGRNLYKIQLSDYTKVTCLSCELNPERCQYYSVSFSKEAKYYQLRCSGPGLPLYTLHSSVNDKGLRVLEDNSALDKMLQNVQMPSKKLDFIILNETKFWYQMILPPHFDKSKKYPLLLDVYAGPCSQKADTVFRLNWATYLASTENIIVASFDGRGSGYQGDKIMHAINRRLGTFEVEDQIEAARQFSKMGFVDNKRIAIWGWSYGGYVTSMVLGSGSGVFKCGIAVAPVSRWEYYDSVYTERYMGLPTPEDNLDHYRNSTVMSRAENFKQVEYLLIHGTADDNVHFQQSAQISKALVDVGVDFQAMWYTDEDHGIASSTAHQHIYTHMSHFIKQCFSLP
Method: as §4

[6] = target: PSMA (Homo sapiens (Human), UniProt Q04609); experiment: PSMA competitive inhibition assay (NAAG substrate, LNCaP cell lysate); assay type: biochemical
Chain of PSMA (Q04609 whole entry): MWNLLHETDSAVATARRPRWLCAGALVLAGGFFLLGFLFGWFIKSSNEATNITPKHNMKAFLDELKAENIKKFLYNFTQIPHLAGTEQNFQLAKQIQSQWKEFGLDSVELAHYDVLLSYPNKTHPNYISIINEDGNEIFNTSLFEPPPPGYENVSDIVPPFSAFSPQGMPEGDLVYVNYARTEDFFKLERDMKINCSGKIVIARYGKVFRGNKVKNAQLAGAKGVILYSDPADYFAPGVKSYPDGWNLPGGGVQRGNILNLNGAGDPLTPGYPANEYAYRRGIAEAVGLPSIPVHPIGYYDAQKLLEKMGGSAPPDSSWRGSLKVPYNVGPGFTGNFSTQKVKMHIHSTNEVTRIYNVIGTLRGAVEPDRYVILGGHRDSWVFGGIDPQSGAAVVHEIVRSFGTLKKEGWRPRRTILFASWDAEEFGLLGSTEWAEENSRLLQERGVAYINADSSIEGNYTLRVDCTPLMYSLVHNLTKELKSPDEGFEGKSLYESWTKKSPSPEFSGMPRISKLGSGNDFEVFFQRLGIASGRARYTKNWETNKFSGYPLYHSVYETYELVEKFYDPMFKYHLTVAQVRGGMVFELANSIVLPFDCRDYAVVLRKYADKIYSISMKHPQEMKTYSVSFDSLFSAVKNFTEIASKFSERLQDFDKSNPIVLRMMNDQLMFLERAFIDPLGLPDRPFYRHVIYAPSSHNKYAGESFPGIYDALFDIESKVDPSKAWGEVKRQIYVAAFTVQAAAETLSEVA
Method: as §4

[7] = test system: FAP+ HT-1080 tumors; experiment: Small animal PET/CT of ^68Ga-labeled SB-FAP-01 in FAP+ HT-1080 and wild type tumors; assay type: in vivo; conditions: 60 minutes after intravenous administration
Method: Small animal PET/CT imaging was performed at 60 minutes after intravenous administration to this mirroring experimental model; and […]

[8] = test system: MDA-MB-231; experiment: Biodistribution in MB-MDA-231 NSG mice; assay type: in vivo, mouse; set-up: Biodistribution: Spleen / Biodistribution: Fat / Biodistribution: Kidney / Biodistribution: Muscle / Biodistribution: Small Intestine / Biodistribution: Salivary Gland / Biodistribution: Lacrimal gland / Biodistribution: Bladder / Biodistribution: Bone / Biodistribution: MDA-MB-231 / Biodistribution: Blood / Biodistribution: Heart / Biodistribution: Lung / Biodistribution: Liver / Biodistribution: Stomach: unit not given here

tissue uptake at 1 h ([1]; bladder, read-out: Biodistribution: Bladder): 3.53 ± 0.52 %ID/g | tissue uptake at 1 h ([1]; lacrimal gland, read-out: Biodistribution: Lac gl): 9.2 ± 1.74 %ID/g | tissue uptake at 2 h ([1]; lacrimal gland, 2 h, n=4, read-out: Biodistribution: Lac gl): 7 ± 2.22 %ID/g | tissue uptake at 4 h ([1]; lacrimal gland, n=4, read-out: Biodistribution: Lac gl): 3.01 ± 1.94 %ID/g | tissue uptake at 1 h ([1]; salivary gland, read-out: Biodistribution: Sal gl): 12.6 ± 2.46 %ID/g | tissue uptake at 4 h ([1]; salivary gland, n=4, read-out: Biodistribution: Sal gl): 4.47 ± 0.89 %ID/g | tissue uptake at 4 h ([1]; small intestine, n=4, read-out: Biodistribution: Sm in): 3.54 ± 0.57 %ID/g | Biodistribution: Blood ([2]; 1 h, n=3): 9.73 ± 0.29 | Biodistribution: Bone ([2]; 1 h, n=3): 6.00 ± 0.27 | Biodistribution: Fat ([2]; 1 h, n=3): 0.80 ± 0.31 | Biodistribution: Heart ([2]; 1 h, n=3): 4.36 ± 0.23 | Biodistribution: Kidney ([2]; 1 h, n=3): 8.08 ± 1.48 | Biodistribution: Liver ([2]; 1 h, n=3): 5.30 ± 0.77 | Biodistribution: Lung ([2]; 1 h, n=3): 7.30 ± 1.16 | Biodistribution: Muscle ([2]; 1 h, n=3): 2.99 ± 0.18 | Biodistribution: Panc ([2]; 1 h, n=3): 9.98 ± 0.99 | Biodistribution: SKMEL24 ([2]; 1 h, n=3): 13.25 ± 1.32 | Biodistribution: Sm in ([2]; 1 h, n=3): 6.52 ± 0.85 | Biodistribution: Spleen ([2]; 1 h, n=3): 3.06 ± 0.46 | Biodistribution: Stomach ([2]; 1 h, n=3): 3.29 ± 1.04 | Biodistribution: Bladder ([2]; 2 h, n=4): 4.76 ± 2.68 | Biodistribution: Blood ([2]; 2 h, n=4): 6.36 ± 0.89 | Biodistribution: Bone ([2]; 2 h, n=4): 5.61 ± 1.73 | Biodistribution: Fat ([2]; 2 h, n=4): 0.91 ± 0.83 | Biodistribution: Heart ([2]; 2 h, n=4): 2.92 ± 0.27 | Biodistribution: Kidney ([2]; 2 h, n=4): 8.05 ± 1.27 | Biodistribution: Liver ([2]; 2 h, n=4): 5.82 ± 0.72 | Biodistribution: Lung ([2]; 2 h, n=4): 5.76 ± 0.57 | Biodistribution: Muscle ([2]; 2 h, n=4): 2.24 ± 0.42 | Biodistribution: Panc ([2]; 2 h, n=4): 6.66 ± 0.38 | Biodistribution: SKMEL24 ([2]; 2 h, n=4): 12.48 ± 1.03 | Biodistribution: Sm in ([2]; 2 h, n=4): 5.44 ± 1.52 | Biodistribution: Spleen ([2]; 2 h, n=4): 2.56 ± 0.40 | Biodistribution: Stomach ([2]; 2 h, n=4): 3.20 ± 0.85 | Biodistribution: Bladder ([2]; 4 h, n=4): 4.63 ± 1.72 | Biodistribution: Blood ([2]; 4 h, n=4): 3.29 ± 0.07 | Biodistribution: Bone ([2]; 4 h, n=4): 3.42 ± 0.92 | Biodistribution: Fat ([2]; 4 h, n=4): 0.49 ± 0.14 | Biodistribution: Heart ([2]; 4 h, n=4): 1.87 ± 0.26 | Biodistribution: Kidney ([2]; 4 h, n=4): 7.26 ± 3.43 | Biodistribution: Liver ([2]; 4 h, n=4): 6.03 ± 1.00 | Biodistribution: Lung ([2]; 4 h, n=4): 4.55 ± 0.51 | Biodistribution: Muscle ([2]; 4 h, n=4): 1.32 ± 0.22 | Biodistribution: Panc ([2]; 4 h, n=4): 4.48 ± 0.88 | Biodistribution: SKMEL24 ([2]; 4 h, n=4): 9.82 ± 3.39 | Biodistribution: Spleen ([2]; 4 h, n=4): 2.69 ± 0.44 | Biodistribution: Stomach ([2]; 4 h, n=4): 2.23 ± 0.58
Structure (SMILES): N#C[C@@H]1CCCN1C(=O)CNC(=O)c1ccnc2ccc(OCCCNC(=O)CCc3cn(CCOCCOCCOCCOCCOCCOCCC(=O)N[C@@H](CCCCNC(=O)CN4CCN(CC(=O)O)CCN(CC(=O)O)CC4)C(=O)NCCCCC(=O)N(CCCC[C@H](NC(=O)N[C@@H](CCC(=O)O)C(=O)O)C(=O)O)Cc4ccc(Br)cc4)nn3)cc12

Structure (SMILES): N#C[C@@H]1CCCN1C(=O)CNC(=O)c1ccnc2ccc(OCCCNC(=O)CCc3cn(CCOCCOCCOCCC(=O)N[C@@H](CCCCNC(=O)CN4CCN(CC(=O)O)CCN(CC(=O)O)CCN(CC(=O)O)CC4)C(=O)NCCCCC(=O)N(CCCC[C@H](NC(=O)N[C@@H](CCC(=O)O)C(=O)O)C(=O)O)Cc4ccc(Br)cc4)nn3)cc12 [SB-FAP-01, (14S,27S,31S)-22-(4-bromobenzyl)-1-(4-(3-((3-((4-((2-((S)-2-cyanopyrrolidin-1-yl)-2-oxoethyl)carbamoyl)quinolin-6-yl)oxy)propyl)amino)-3-oxopropyl)-1H-1,2,3-triazol-1-yl)-12,15,21,29-tetraoxo-14-(4-(2-(4,7,10-tris(carboxymethyl)-1,4,7,10-tetraazacyclododecan-1-yl)acetamido)butyl)-3,6,9-trioxa-13,16,22,28,30-pentaazatritriacontane-27,31,33-tricarboxylic acid]
Ki ([3]; 95% CI, read-out: FAP Binding affinity Ki (95% CI)): 0.25 to 0.51 nM | IC50 ([3]; Table 4): 1.79 nM | Ki ([3]; Table 4, read-out: FAP Ki): 0.36 nM | Ki ([3]; read-out: FAP Binding affinity Ki): 0.36 nM | IC50 [4]: 350 nM | IC50 [5]: 16900 nM | Ki ([6]; 95% CI, read-out: PSMA Binding affinity Ki (95% CI)): 7.3 to 37.9 nM | IC50 ([6]; Table 4): 83.2 nM | Ki ([6]; Table 4, read-out: PSMA Ki): 16.6 nM | Ki ([6]; read-out: PSMA Binding affinity Ki): 16.6 nM | PET/CT tumor imaging [7]: able to image tumors derived from FAP+ HT-1080 human fibrosis cells engineered to overexpressed FAP, but not those which are not

Structure (SMILES): N#C[C@@H]1CCCN1C(=O)CNC(=O)c1ccnc2ccc(OCCCNC(=O)CCc3cn(CCOCCOCCOCCC(=O)N[C@@H](CCCCNC(=O)CN4CCN(CC(=O)O)CCN(CC(=O)O)CC4)C(=O)NCCCCC(=O)N(CCCC[C@H](NC(=O)N[C@@H](CCC(=O)O)C(=O)O)C(=O)O)Cc4ccc(Br)cc4)nn3)cc12 [SB-FAP-02]
IC50 ([3]; Table 4): 1.53 nM | Ki ([3]; Table 4, read-out: FAP Ki): 0.31 nM | Ki ([3]; read-out: FAP Ki): 0.31 nM | Ki [4]: 116000 nM | IC50 [4]: 580 nM | Ki [5]: 1760 nM | IC50 [5]: 8810 nM | IC50 ([6]; Table 4): 90 nM | Ki ([6]; Table 4, read-out: PSMA Ki): 18.1 nM | Ki ([6]; read-out: PSMA Ki): 18.1 nM | PSMA binding affinity, fold lower than FP-L2 ([6]; relative to FP-L2): 2 fold | Biodistribution: Blood ([8]; At 1 h nude mice): 8.47 ± 0.16 | Biodistribution: Bone ([8]; At 1 h nude mice): 3.34 ± 0.32 | Biodistribution: Fat ([8]; At 1 h nude mice): 0.61 ± 0.31 | Biodistribution: Heart ([8]; At 1 h nude mice): 3.46 ± 0.07 | Biodistribution: Kidney ([8]; At 1 h nude mice): 12.14 ± 1.39 | Biodistribution: Lacrimal gland ([8]; At 1 h nude mice): 6.61 ± 1.23 | Biodistribution: Liver ([8]; At 1 h nude mice): 6.74 ± 0.16 | Biodistribution: Lung ([8]; At 1 h nude mice): 5.16 ± 0.04 | Biodistribution: MDA-MB-231 ([8]; At 1 h nude mice): 3.60 ± 0.32 | Biodistribution: Muscle ([8]; At 1 h nude mice): 1.59 ± 0.07 | Biodistribution: Pancreas ([8]; At 1 h nude mice): 4.95 ± 0.24 | Biodistribution: Salivary Gland ([8]; At 1 h nude mice): 7.75 ± 0.99 | Biodistribution: Small Intestine ([8]; At 1 h nude mice): 6.69 ± 0.82 | Biodistribution: Spleen ([8]; At 1 h nude mice): 2.38 ± 0.04 | Biodistribution: Stomach ([8]; At 1 h nude mice): 2.72 ± 0.30 | Biodistribution: Bladder ([8]; At 2 h NSG mice): 1.82 ± 0.26
